Where “and” joins values, the source holds several entries; their conditions need not be identical. Identical values can stand only once. Counter-ions that a name gives are not always drawn. Like-named read-outs stand apart in the source and are kept apart here.

Data set [1] is described as follows: Phase transition temperature of acyl chain-modified phospholipids. It is filed as physicochemical.
Data set [2] in a line: Drug loading of payloads in liposomes (thin-film hydration; quantitated after liposome disruption). It is filed as physicochemical.
A further data set in a line: physchem. As to conditions: pH 4.
Data set [3] can be described thus: In vitro cumulative drug release by dialysis at 37° C. Format: physicochemical.
For data set [4], the system named is PC12 rat adrenal gland pheochromocytoma cells.
The conditions of data set [5]: pH 7.4.
Data set [6] deals with sciatic nerve. As to conditions: rat, in vivo.
Data set [7] deals with sciatic nerve. The experiment in a line: Motor nerve block, weight-bearing test. Conditions: rat, in vivo. As for the experimental part: Motor nerve block was assessed by a weight-bearing test to determine the motor strength of the rat's hind paw. The rat was positioned with one hind paw on a digital balance and was allowed to bear its own weight. The maximum weight that the rat could bear without the ankle touching the balance was recorded, and motor block was considered achieved when the motor strength was less than half maximal. Measurements were repeated three times at each time point and the median was used for further data analysis.
Duration of sensory block were calculated as the time required for thermal latency to return to 7 seconds (halfway between the baseline and maximal latencies). The duration of motor block was defined as the time it took for the weight-bearing to return to halfway between normal and maximal block.

The conditions of data set [8]: cited from earlier work.
Data set [9] deals with sciatic nerves and surrounding tissues. As to conditions: rat, in vivo.
Setting [10] is: payload in aromatized liposomes containing Ph-DPPC (Lipo-Ph).
Setting [11] is: first 24 h, Lipo-Ph versus Lipo.
The mark [12] stands for this setting: payload from aromatized liposomes, 37° C.

“1-palmitoyl-2-(16-coumarin)palmitoyl-sn-glycero-3-phosphocholine [CM-DPPC]”: the “phase transition temperature (Tm)” value in data set [1] came to 66.1 °C.
Consider `CCCCN1CCCCC1C(=O)Nc1c(C)cccc1C` (stereo not shown) [Bup, bupivacaine hydrochloride], for which the “Drug loading, Lipo” value in [2] is listed as 3.5 ± 0.7%. In data set [2] (Lipo-Ph versus Lipo), this compound had an Increase in loading of 60.0%. Further, the “Drug loading, Lipo-Ph” value in data set [2] (setting [10]) is 5.6 ± 0.8%. Moreover, in the data set “physchem”, the logP is -0.27. Moreover, in data set [3], the “Cumulative release in first 24 h, Lipo” value is on record as 70.7 ± 1.9%. In data set [3] (setting [11]), this compound returned a Decrease in release of 47.7%. For the same compound, the “Cumulative release in first 24 h, Lipo-Ph” value (“Cumulative release … Lipo-Ph” below) in [3] (setting [12]) worked out at 37.0 ± 2.7%.
In the case of `COc1cccc2c1C(=O)c1c(O)c3c(c(O)c1C2=O)C[C@@](O)(C(=O)CO)C[C@@H]3O[C@H]1C[C@H](N)[C@H](O)[C@H](C)O1` [Dox, doxorubicin hydrochloride], the “Drug loading, Lipo” value in data set [2] stood at 0.8 ± 0.1%. This compound came in with an Increase in loading in [2] (Lipo-Ph versus Lipo) of 30.4%. In addition, the “Drug loading, Lipo-Ph” value in data set [2] (setting [10]) worked out at 1.1 ± 0.1%. In addition, in “physchem”, the logP was -0.22. Further, the “Cumulative release in first 24 h, Lipo” value in [3] turned out to be 26.8 ± 1.1%. The compound also returned a Decrease in release in data set [3] (setting [11]) of 34.3%. Further, the “Cumulative release … Lipo-Ph” value in data set [3] (setting [12]) is reported as 17.6 ± 1.0%.
Take `CCCCCCCCCCCCCCCC(=O)OC[C@H](COP(=O)([O-])OCC[N+](C)(C)C)OC(=O)CCCCCCCCCCCCCCCOc1ccccc1` [Ph-DPPC, 1-palmitoyl-2-(16-phenoxy)palmitoyl-sn-glycero-3-phosphocholine]: the “phase transition temperature (Tm)” value in data set [1] worked out at 47.4 °C.
For the compound `Oc1ccccc1` [Phenol, phenol], in [4], the “cytotoxicity, PC12” value is listed as “intrinsically toxic”. Also, the “cytotoxicity, C2C12” value in the data set with C2C12 mouse myoblasts is listed as “intrinsically toxic”.
In the case of `CCN(CC)c1ccc2c(-c3ccc(S(=O)(=O)O)cc3S(=O)(=O)[O-])c3ccc(=[N+](CC)CC)cc-3oc2c1` [SRho, sulforhodamine B], in [2], the “Drug loading, Lipo” value amounted to 2.6 ± 0.3%. In [2] (Lipo-Ph versus Lipo), this compound gave an Increase in loading of 19.2%. In data set [2] (setting [10]), the “Drug loading, Lipo-Ph” value worked out at 3.1 ± 0.2%. For the same compound, in [5], the “log P (octanol-water partition coefficient)” value was −0.53. Moreover, in [3], the “Cumulative release in first 24 h, Lipo” value is 12.2 ± 0.5%. Moreover, the Decrease in release in data set [3] (setting [11]) came to 51.6%. The “Cumulative release … Lipo-Ph” value in data set [3] (setting [12]) amounted to 5.9 ± 0.7%. Besides, the “time within which free dye was released” value in data set [3] (unencapsulated SRho in the release set-up) is ≤ 6 h.
Consider tetrodotoxin [TTX], for which, in data set [2], the “Drug loading, Lipo” value was determined as 0.11 ± 0.01%; the “Drug loading, Lipo-Ph” value amounted to 0.13 ± 0.01%; the Increase in loading was determined as 25.5%. For the same compound, in the data set on sciatic nerve [6], the “Duration of nerve block” value was 2.5 ± 0.6 h and 2.5 h; the nerve block entry is recorded as “did not induce detectable nerve block”; the sensory nerve block result is reported as “no detectable block”. For the same compound, the “log P (octanol-water partition coefficient)” value in data set [5] was determined as 0.13. For the same compound, in [3], the “Cumulative release in first 24 h, Lipo” value is listed as 17.1 ± 0.3%; the “Cumulative release … Lipo-Ph” value was found to be 11.3 ± 0.4%; the Decrease in release came out at 34.0%; the “TTX released after 8 hours” value is “More than 95%”. Further, the “difference between the duration of sensory and motor nerve block” value in the data set on sciatic nerve [7] is recorded as “no statistically significant difference”. The “Log P” value in data set [8] is reported as −6.2. In addition, in data set [9], the “Inflammation Scores, Day 4” value turned out to be 0; the “Inflammation Scores, Day 14” value is on record as 0 (0-0); the “Myotoxicity Scores, Day 4” value turned out to be 0; the “Myotoxicity Scores, Day 14” value came out at 0.

These data come from patent US20250319025A9, “COMPOSITIONS COMPRISING MODIFIED PHOSPHOLIPIDS AND USES THEREOF” (priority 2021, published 2025).
